Structures can show the parent of a compound that is named as a salt. Where two headings read alike, the source gives them in different places.
Legend:
CTX-1 = assay: Plasma CTX-1 in client-owned dogs with alveolar bone loss induced by spontaneously developed periodontal disease; type: in vivo
Description: The present study was performed on 10 Beagle dogs suffering from alveolar bone loss induced by spontaneously developed periodontal disease. All dogs were treated with MIV-701 besylate salt for minimum 30 day and maximum 90 days, depending on the tolerance at intermediate visits. The product is administrated to the dog by its owner at home, once a day with a meal.
There were two treatment groups: • Group A (5 dogs) with a dose of 25 mg/kg. • Group B (5 dogs) with a dose of 50 mg/kg.
Administration protocol and dosage: MIV-701 besylate salt was administrated to dog once-a-day, at home with a standard meal. It was allowed to administrate the capsule(s) with a small amount of wet food/favorite snack. Opening of the capsule and spilling the product over the food was forbidden.
Treatment was administrated for 90 days. Every 30 days, based on the results of clinical exam, blood parameters and potential occurrence of adverse events suspected to be drug-related, the treatment prolongation for another 30 days, or discontinuation of treatment was decided by the Investigator.
Whole blood sample for CTX-1 analysis was collected at visit V2 (Day 0), visit V3 (Day 30+3 days), Visit V4 (Day 60t 3 days) and Visit V5 (Day 90t 3 days).
Each time, the blood sample was collected after overnight fasting, between 08:00 and 10:00 in the morning. As far as possible the blood sample was taken at the same time each visit. The night before the visit, the Investigational Product was administrated to the dog at 21:00.
The result from visit V2 (Day 0) was used as a baseline value for the efficacy evaluation criteria.
Each time 2 ml of the peripheral whole blood was collected on an anti-coagulant tube (K2EDTA) and gently inverted several times. Next, sample was centrifuged at 1500 G for 10 minutes at room temperature. The obtained plasma was divided into two Eppendorf tubes labelled as "Aliquot 1" and "Aliquot 2". Minimum 0.5 ml was placed in "Aliquot 1" while the rest of plasma was placed in "Aliquot 2". All obtained aliquots were immediately stored at - 20°C on site.
The CTX-1 analysis was performed at the end of the study by Central Laboratory. The shipment of aliquots from site to Central Laboratory was organized by the Monitor and divided into two, separated in time shipments. One with all "Aliquot 1" samples and second one with all "Aliquot 2" samples. The CTX-1 SAMPLE SHIPMENT FORM was joined to the shipment.

[1] = human healthy volunteers, cited from earlier work; for MIV-701/MIV06404 ratio: single oral administration
[2] = Plasma pharmacokinetic of MIV-701 after single and repeated oral administration of MIV-701 besylate salt in healthy cats; type: in vivo; conditions: for Cmax at 312 h / Tmax at 312 h / AUC(0-inf) at 312 h / AUC(0-t) at 312 h / half-life at 312 h / Cmax / Tmax at 0 h / AUC(0-inf) / AUC(0-t) / half-life: cat; for AUC(0-inf) at 312 h / AUC(0-inf): read-out: AUC(0-infini) (converted); for AUC(0-t) at 312 h / AUC(0-t): read-out: AUC(0-tfinal) (converted); for half-life at 312 h / half-life: read-out: T1/2 elimination (converted)
Description: MIV-701 besylate salt was administered once daily for 14 days to 4 healthy cats at three increasing doses: 2 mg/kg, 10 mg/kg and 50 mg/kg.
The three doses were consecutively administered for 14 days with a >5-day washout period between two dose levels.
Each treatment period can be resumed as follows: • J0 (T+24h): first administration, withdrawal of blood samples for pharmacokinetic and plasma CTX-1 assessment (pre-dose and 0.5h, 1h, 2h, 4h, 8h and 24h after first drug administration), pre-dose blood samples for hematology and clinical biochemistry (baseline values for safety assessment). • J5 ([…]) and J8: pre-dose blood samples. • J13: last administration, withdrawal of plasma samples for pharmacokinetic and plasma CTX-1 assessment (pre-dose and 0.5h, 1h, 2h, 4h, 8h and 24h after last drug administration), pre-dose sampling for hematology and clinical biochemistry (baseline values for safety assessment). • J15 to J≥19: washout period.
After centrifugation of blood samples plasma aliquots were stored at -20°C._After thawing on ice, 30 µL of plasma were transferred into 1.5 ml microtube containing 270 µL acetonitrile. Microtubes were then vigorously stirred and then centrifuged (12000 rpm, 10 min, 4°C) and the supernatant was transferred in Matrix tube for LC-MS/MS analysis.
A calibration curve (9 points, 3 to 30 000 nM) was obtained by spiking plasma samples from naive cats with appropriate quantities of Compound I.
Equipment: LC-MS/MS Acquity I Class-Wevo TQD (Waters®): - Acquity I Class ∘ Column: Waters® Acquity BEH C8, 50*2.1mm, 1.7 µm (40°C) ∘ Mobile phase: • ▪ A: Ammonium Formate 5mM, pH=3.8 • ▪ B: Ammonimuformate 5 mM in CH3CN 5% aqueous, pH=3.8 ∘ Injection volume: 1 µL ∘ Speed: 600 µL/min ∘ Gradient: […]
- Xevo TQD • ∘ Source temperature: 150°C • ∘ Desolvatation temperature: 600°C • ∘ Cone gaz speed: 50L/h • ∘ Desolvatation gaz speed: 1200L/h - Analytes MS characteristics
Terminal elimination half-life (t1/2) was calculated according to the following formula: T1/2 elimination = ln(2)/kel [formula] kel= slope of ln(C)=f(temps) calculated on the last points of the curves (elimination phase)/ MIV-701 exposure (Area Under the Curve; AUCt) was calculated according to trapezoidal method accroding to the following formula: AUCt−>inf = [C]t /kel [formula]

[3] = plasma MIV-701, oral 2 mg/kg once daily, Day 13 (repeated)
[4] = plasma MIV-701, oral 2 mg/kg, Day 0 (single)
[5] = plasma MIV-701, oral 10 mg/kg once daily, Day 13 (repeated)
[6] = plasma MIV-701, oral 10 mg/kg, Day 0 (single)
[7] = plasma MIV-701, oral 50 mg/kg, Day 0 (single)

CC(C)C[C@H](NC(=O)c1ccc(-c2csc(N3CCN(C)CC3)n2)cc1)C(=O)N1C[C@H](F)[C@H]2OCC(O)(O)[C@H]21 [MIV-701 besylate salt, N-[(S)-1-((3aS,6S,6aS)-6-Fluoro-S-oxo-hexahydro-furo[3,2-b]pyrrole-4-carbony)-3-methyl-butyl]-4-[2-(4-methyl-piperazin-1-yl)-thiazol-4-yl]-benzamide benzenesulphonate]
patients with reduction in plasma CTX-1 (CTX-1; 10 dogs, Day-90): all but one patient experienced reduction
mean % change in CTX-1 (CTX-1; CTX-1-responders (n=9), Day-90 vs Day-0): -67%±6%
reduction of plasma CTX-1 vs baseline (Day-0) (CTX-1; dogs with periodontal disease, 25 and 50 mg/kg/day oral, Day-30 and Day-60, no significant difference between groups): comparable reduction
reduction of plasma CTX-1 vs pre-treatment baseline (CTX-1; dogs with periodontal disease, Day-90 at 50 mg/kg/day, N=10): highly significant reduction
MIV-701/MIV-06404 exposure ratio ([1]; single administrations, dose not stated): 0.03
MIV-701/MIV06404 ratio ([1]; 25 mg): 0.01
MIV-701/MIV06404 ratio ([1]; 75 mg): 0.02
MIV-701/MIV06404 ratio ([1]; 150 mg): 0.03
MIV-701/MIV06404 ratio ([1]; 300 mg): 0.04
plasma exposure (AUC) at D13 higher than AUC at D0 ([2]; 2 mg/kg): 1.2 folds
plasma exposure (AUC) at D13 higher than AUC at D0 ([2]; 10 mg/kg): 1.9 folds
Cmax at 312 h [2, 3]: 141 nM
Tmax at 312 h [2, 3]: 2 h
AUC(0-inf) at 312 h [2, 3]: 0.984 µM·h
AUC(0-t) at 312 h [2, 3]: 0.972 µM·h
half-life at 312 h [2, 3]: 3.9 h
Cmax [2, 4]: 122 nM
Tmax at 0 h [2, 4]: 2 h
AUC(0-inf) [2, 4]: 0.811 µM·h
AUC(0-t) [2, 4]: 0.808 µM·h
half-life [2, 4]: 2.9 h
Cmax at 312 h [2, 5]: 663 nM
Tmax at 312 h [2, 5]: 0.5 h
AUC(0-inf) at 312 h [2, 5]: 5.3 µM·h
AUC(0-t) at 312 h [2, 5]: 5.07 µM·h
half-life at 312 h [2, 5]: 5.7 h
Cmax [2, 6]: 249 nM
Tmax at 0 h [2, 6]: 2 h
AUC(0-inf) [2, 6]: 2.85 µM·h
AUC(0-t) [2, 6]: 2.78 µM·h
half-life [2, 6]: 4.6 h
Cmax [2, 7]: 3890 nM
Tmax at 0 h [2, 7]: 2 h
AUC(0-inf) [2, 7]: 34.8 µM·h
AUC(0-t) [2, 7]: 33.6 µM·h
half-life [2, 7]: 4.9 h
Kel (4-24h) [2, 3]: -0.179 h⁻¹
Kel (4-24h) [2, 4]: -0.236 h⁻¹
Kel (4-24h) [2, 5]: -0.122 h⁻¹
Kel (4-24h) [2, 6]: -0.152 h⁻¹
Kel (4-24h) [2, 7]: -0.142 h⁻¹

Reference: patent EP4613273A1, “TREATMENT OF BONE LOSS” (priority 2024, dated 2025)
